For nine compounds, inhibition and IC50 results are on record in patent publication US6294539A, “Heterocyclic hydroxamic acid derivatives as MMP inhibitors” (Advanced Syntech, LLC, priority 2000, dated 2001).

In the first test the target is MMP-9 (Homo sapiens, UniProt P14780). The test is described as follows: MMP-9 inhibition assay (internally quenched fluorescent peptide substrate). It counts as biochemical. To be noted: 1 μM; purified MMP-9 enzyme, incubation at 37 C. The protocol: Each of the compounds of Examples 5-12 were assayed for their efficacy as MMP-9 inhibitors. The assay for MMP-9 inhibitors was performed by mixing purified MMP-9 enzyme with assay buffer, substrate, and compound to be tested. The substrate is an internally quenched fluorescent peptide that becomes unquenched upon cleavage by MMP-9 enzyme. After incubation at 37 C., the assay is stopped by addition of EDTA solution and the fluorescence is measured. The fluorescence is directly proportional to enzyme activity. A compound that is an inhibitor of MMP-9 activity will reduce the resultant fluorescent values.
MMP-9, sequence (P14780 94-707, species assumed): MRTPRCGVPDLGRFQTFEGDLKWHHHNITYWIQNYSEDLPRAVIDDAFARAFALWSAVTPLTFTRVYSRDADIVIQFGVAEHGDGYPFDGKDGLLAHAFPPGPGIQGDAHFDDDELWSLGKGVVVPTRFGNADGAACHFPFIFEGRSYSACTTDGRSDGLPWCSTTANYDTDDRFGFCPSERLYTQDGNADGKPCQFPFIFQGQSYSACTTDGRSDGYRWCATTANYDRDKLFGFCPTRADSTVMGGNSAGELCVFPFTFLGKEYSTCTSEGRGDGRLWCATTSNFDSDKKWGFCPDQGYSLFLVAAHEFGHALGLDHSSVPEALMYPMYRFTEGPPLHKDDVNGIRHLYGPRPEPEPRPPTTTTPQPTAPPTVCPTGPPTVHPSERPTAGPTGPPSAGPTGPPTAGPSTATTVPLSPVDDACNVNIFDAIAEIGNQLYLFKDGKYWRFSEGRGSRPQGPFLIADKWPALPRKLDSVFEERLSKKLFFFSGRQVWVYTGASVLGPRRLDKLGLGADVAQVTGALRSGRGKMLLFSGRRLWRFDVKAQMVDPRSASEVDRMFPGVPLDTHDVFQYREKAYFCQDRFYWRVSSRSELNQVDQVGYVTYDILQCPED
As usually defined, the inhibition is how much of the control response was suppressed. The low end stands for little suppression, the high end for strong suppression. For `COc1ccc(CCN(CC(=O)N2CC(=O)N(Cc3ccc(F)cc3)CC2CC(=O)NO)S(=O)(=O)c2ccc(OC)cc2)cc1` (stereo not drawn) [Example 5, 2-{4-(4-fluorobenzyl)-1-[N-(4-methoxybenzenesufonyl)-N-(4-methoxyphenethyl)-aminoacetyl]-5-oxo-piperazin-2-yl}-N-hydroxy-acetamide], the inhibition at 1 µM worked out at 42%.

In turn, `COc1ccc(S(=O)(=O)N(CCc2cccc(Cl)c2)CC(=O)N2CC(=O)N(Cc3ccc(F)cc3)CC2CC(=O)NO)cc1` (stereo not drawn) [Example 4, 2-{1-[N-(3-Chlorophenethyl)-N-(4-methoxybenzenesufonyl)-aminoacetyl]-4-(4-fluorobenzyl)-5-oxo-piperazin-2-yl}-N-hydroxy-acetamide] yielded an inhibition at 1 µM of 52%.

In turn, `COc1ccc(S(=O)(=O)N(CCc2cccc(Cl)c2)CC(=O)N2CC(=O)N(Cc3cc(OC)cc(OC)c3)CC2CC(=O)NO)cc1` (stereo not drawn) [Example 7, 2-{1-[N-(3-Chlorophenethyl)-N-(4-methoxybenzenesufonyl)-aminoacetyl]-4-(3,5-dimethoxybenzyl)-5-oxo-piperazin-2-yl}-N-hydroxy-acetamide] yielded an inhibition at 1 µM of 62%.

In turn, `COc1ccc(CCN(CC(=O)N2CC(=O)N(Cc3cc(OC)cc(OC)c3)CC2CC(=O)NO)S(=O)(=O)c2ccc(OC)cc2)cc1` (stereo not drawn) [Example 8, 2-{4-(3,5-Dimethoxybenzyl)-1-[N-(4-methoxybenzenesufonyl)-N-(4-methoxyphenethyl)-aminoacetyl]-5-oxo-piperazin-2-yl}-N-hydroxy-acetamide] yielded an inhibition at 1 µM of 35%.

The same test, now with this note: purified MMP-9 enzyme, incubation at 37 C.
Broadly, the IC50 is the concentration at which inhibition is half-maximal. Low readings indicate higher potency, high ones lower potency. Compound `COc1ccc(CCN(CC(=O)N2C(CC(=O)NO)CN(Cc3ccc(F)cc3)C(=O)[C@@H]2C)S(=O)(=O)c2ccc(OC)cc2)cc1` (stereo partly drawn) [Example 6, 2-{4-(4-Fluorobenzyl)-1-[N-(4-methoxybenzenesufonyl)-N-(4-methoxyphenethyl)-aminoacetyl]-6-(S)-methyl-5-oxo-piperazin-2-yl}-N-hydroxy-acetamide] showed a concentration for half-maximal inhibition (IC50) of 0.1 µM. In other words, the sub-micromolar range.

Compound `COc1ccc(CCN(CC(=O)N2C(CC(=O)NO)CN(Cc3cc(OC)cc(OC)c3)C(=O)[C@@H]2C)S(=O)(=O)c2ccc(OC)cc2)cc1` (stereo partly drawn) [Example 10, 2-{4-(3,5-dimethoxybenzyl)-1-[N-(4-methoxybenzenesufonyl)-N-(4-methoxyphenethyl)-aminoacetyl]-6-(S)-methyl-5-oxo-piperazin-2-yl}-N-hydroxy-acetamide] yielded an IC50 of 0.15 µM.

`COc1ccc(S(=O)(=O)N(CCc2cccc(Cl)c2)CC(=O)N2C(CC(=O)NO)CN(Cc3cc(OC)cc(OC)c3)C(=O)[C@@H]2C)cc1` (stereo partly drawn) [Example 9, 2-{1-[N-(3-Chlorophenethyl)-N-(4-methoxybenzenesufonyl)-aminoacetyl]4-(3,5-dimethoxybenzyl)-6-(S)-methyl-5-oxo-piperazin-2-yl}-N-hydroxy-acetamide] had an IC50 of 0.12 µM.

`COc1ccc(S(=O)(=O)N(CCc2cccc(Cl)c2)CC(=O)N2C(CC(=O)NO)CN(Cc3ccc(F)cc3)C(=O)[C@@H]2C)cc1` (single isomer, unassigned) [3B (isomer B)] displayed an IC50 of 0.053 µM.

The compound `COc1ccc(S(=O)(=O)N(CCc2cccc(Cl)c2)CC(=O)N2C(CC(=O)NO)CN(Cc3ccc(F)cc3)C(=O)[C@@H]2C)cc1` (single isomer, unassigned) [3A (isomer A)] yielded an IC50 of 0.05 µM.
